The source of these data is publication PMC8002452, “Molecular Basis of AmpC β-Lactamase Induction by Avibactam in Pseudomonas aeruginosa: PBP Occupancy, Live Cell Binding Dynamics and Impact on Resistant Clinical Isolates Harboring PDC-X Variants” (International Journal of Molecular Sciences, 2021).

For assay [1], the target named is T1, PBP1a (Pseudomonas aeruginosa, UniProt Q07806).
T1 construct: PBP-containing membranes were isolated by ultracentrifugation; endogenous in cells; host or cells: P. aeruginosa PAO1 wild type (membrane preparations or intact cells)
The experiment in a line: PBP-binding affinity (IC50), bocillin FL, isolated membranes. On the set-up: species or system P. aeruginosa PAO1. Conditions: PAO1 membranes 0.5 mg/mL, 30 min, 25 µM bocillin FL. The protocol:
(§1) PBP-binding affinity was determined using previously described methods. Briefly, P. aeruginosa PAO1 cultures grown to the midexponential phase (7.6 log10 CFU/mL) were incubated in CAMHB at 37 °C and 180 rpm, washed and centrifuged (3220× g for 10 min at 4 °C). Bacterial pellets were washed in 30 mL of PBS buffer (pH 7.5), resuspended in 10 mL of PBS and sonicated at 40% amplitude for three 2 min bursts (while immersed in an ice bath) and centrifuged at 3220× g for 15 min at 4 °C. PBP-containing membranes were isolated by ultracentrifugation at 150,000× g for 30 min at 4 °C. Total protein concentrations were measured through the Bradford method.
(§2) Subsequently, the fluorescent penicillin bocillin FL was added to a 25 μM final concentration. Labeled PBPs were denatured and separated through 4–15% SDS–polyacrylamide gel electrophoresis. Labeled PBPs were visualized using a Typhoon FLA 9500 biomolecular imager (GE Healthcare Bio-Sciences AB, Uppsala, Sweden) (excitation at 488 nm and emission at 530 nm), and binding was determined from at least three independent experiments using ImageQuant TL software v8.1.0.0 (GE Healthcare Bio-Sciences AB, Uppsala, Sweden).

The target of assay [2] is T2, PBP5/6 (Pseudomonas aeruginosa, UniProt G3XD74). The description is as above. Details: species or system P. aeruginosa PAO1. Conditions: PAO1 membranes 0.5 mg/mL, 30 min, 25 µM bocillin FL; read-out: Mean IC50 ± SD, PBP 5/6 (converted). The protocol:
as §1, §2

Assay [3] deals with T3, PBP4 (Pseudomonas aeruginosa, UniProt Q9HZG1). The assay is described as above. Conditions: PAO1 membranes 0.5 mg/mL, 30 min, 25 µM bocillin FL; read-out: Mean IC50 ± SD, PBP 4 (converted). On the set-up: species or system P. aeruginosa PAO1. On the procedure: as §1, §2
Assay [4] concerns the target T4, PBP2 (Pseudomonas aeruginosa, UniProt Q9X6V3).
T4 construct: PBP-containing membranes were isolated by ultracentrifugation; endogenous in cells; host or cells: P. aeruginosa PAO1 wild type (membrane preparations or intact cells)
Described as above. On the set-up: species or system P. aeruginosa PAO1. Conditions: PAO1 membranes 0.5 mg/mL, 30 min, 25 µM bocillin FL; read-out: Mean IC50 ± SD, PBP 2 (converted). The protocol:
as §1, §2

In assay [5] the target is T5, PBP1b (Pseudomonas aeruginosa, UniProt G3XD31). Described as above. Details: species or system P. aeruginosa PAO1. Particulars: PAO1 membranes 0.5 mg/mL, 30 min, 25 µM bocillin FL; read-out: Mean IC50 ± SD, PBP 1b (converted). On the procedure:
as §1, §2

Assay [6] addresses T6, PBP3 (Pseudomonas aeruginosa, UniProt G3XD46).
T6 construct: PBP-containing membranes were isolated by ultracentrifugation; endogenous in cells; host or cells: P. aeruginosa PAO1 wild type (membrane preparations or intact cells)
The experiment in a line: biochemical. It counts as binding, P. aeruginosa PAO1. Particulars: PAO1 membranes 0.5 mg/mL, 30 min, 25 µM bocillin FL. On the procedure: as §1, §2

The target in assay [7] is T1, PBP1a. The assay can be described thus: Intact cells' time-course of PBP-binding assay. It counts as cell-based, P. aeruginosa PAO1. Conditions: intact PAO1 cells, 4 µg/mL avibactam, up to 60 min. The protocol: (§3) Figure 2 Time-course of intact cells and isolated PBP-binding assay. P. aeruginosa PAO1 cultures (a) and isolated PBP-containing membrane preparations (b) were incubated for 15, 30 and 60 min in the presence of 4 µg/mL avibactam (AVI). After isolating PBP-containing membranes, preparations were labeled with 25 µM bocillin FL. The graphs represent the PBP fraction unbound relative to each time control over time. The mean PBP fraction unbound values from at least three independent experiments ± standard deviations are shown.
(§4) P. aeruginosa PAO1 cultures grown to the midexponential phase (7.6 log10 CFU/mL) were preincubated in cation-adjusted Mueller–Hinton broth (CAMHB) at 37 °C (180 rpm) for 20 min. Afterwards, 4 µg/mL of avibactam (AVI) was added, and the bacterial cultures were incubated (37 °C, 180 rpm). Control and treatment samples were taken after 15, 30 and 60 min incubation, kept in ice and centrifuged (3220× g for 10 min at 4 °C). The bacterial pellets were washed in 30 mL phosphate-buffered saline (PBS) (pH 7.5) four times, resuspended in 10 mL of PBS and sonicated by using a Digital Sonifier Unit model S-450D (Branson Ultrasonics Corp., Danbury, CT, USA) at 40% amplitude for three 2 min bursts (while immersed in an ice bath) and centrifuged at 3220× g for 15 min at 4 °C. Membranes containing the PBPs were isolated by ultracentrifugation at 150,000× g for 30 min at 4 °C using an Optima L100XP Ultra centrifuge (Beckman Coulter, Inc., Palo Alto, CA, USA) and were resuspended in 60 μL of PBS. Total protein content was measured using the Quick Start Bradford protein assay kit with bovine serum albumin as a standard (Bio-Rad Laboratories, Hercules, CA, USA), according to the manufacturer’s instructions. To determine the PBP fraction unbound, membranes containing PBPs (20 μL, at 0.5 mg/mL) were labeled with a 25 μM concentration of the fluorescent penicillin bocillin FL [32]. Labeled PBPs were denatured and separated through 4–15% SDS–polyacrylamide gel electrophoresis (Bio-Rad Laboratories, Hercules, CA, USA). Labeled PBPs were visualized using a Typhoon FLA 9500 biomolecular imager (GE Healthcare Bio-Sciences AB, Uppsala, Sweden) (excitation at 488 nm and emission at 530 nm), and binding to different PBPs was determined from at least three independent experiments using ImageQuant TL software v8.1.0.0 (GE Healthcare Bio-Sciences AB, Uppsala, Sweden).

The target in assay [8] is T2, PBP5/6. The experiment in a line: Intact cells' time-course of PBP-binding assay. It counts as cell-based, P. aeruginosa PAO1. Particulars: intact PAO1 cells, 4 µg/mL avibactam, up to 60 min. On the procedure: as §3, §4
The target in assay [9] is T3, PBP4. The experiment in a line: Intact cells' time-course of PBP-binding assay. It counts as cell-based, P. aeruginosa PAO1. Conditions: 1 h; intact PAO1 cells, 4 µg/mL avibactam, 60 min; read-out: PBP4 fraction bound. The protocol: as §3, §4
Assay [10] addresses T4, PBP2. The experiment in a line: Intact cells' time-course of PBP-binding assay. Particulars: intact PAO1 cells, 4 µg/mL avibactam, 60 min. Format: cell-based, P. aeruginosa PAO1. On the procedure: as §3, §4
The target in assay [11] is T5, PBP1b. The assay can be described thus: Intact cells' time-course of PBP-binding assay. Particulars: 1 h; intact PAO1 cells, 4 µg/mL avibactam, 60 min; read-out: PBP1b fraction bound. It counts as cell-based, P. aeruginosa PAO1. On the procedure: as §3, §4
Assay [12] deals with T6, PBP3. The experiment in a line: Intact cells' time-course of PBP-binding assay. Format: cell-based, P. aeruginosa PAO1. Particulars: intact PAO1 cells, 4 µg/mL avibactam, up to 60 min. On the procedure: as §3, §4

T6 sequence (G3XD46 whole entry): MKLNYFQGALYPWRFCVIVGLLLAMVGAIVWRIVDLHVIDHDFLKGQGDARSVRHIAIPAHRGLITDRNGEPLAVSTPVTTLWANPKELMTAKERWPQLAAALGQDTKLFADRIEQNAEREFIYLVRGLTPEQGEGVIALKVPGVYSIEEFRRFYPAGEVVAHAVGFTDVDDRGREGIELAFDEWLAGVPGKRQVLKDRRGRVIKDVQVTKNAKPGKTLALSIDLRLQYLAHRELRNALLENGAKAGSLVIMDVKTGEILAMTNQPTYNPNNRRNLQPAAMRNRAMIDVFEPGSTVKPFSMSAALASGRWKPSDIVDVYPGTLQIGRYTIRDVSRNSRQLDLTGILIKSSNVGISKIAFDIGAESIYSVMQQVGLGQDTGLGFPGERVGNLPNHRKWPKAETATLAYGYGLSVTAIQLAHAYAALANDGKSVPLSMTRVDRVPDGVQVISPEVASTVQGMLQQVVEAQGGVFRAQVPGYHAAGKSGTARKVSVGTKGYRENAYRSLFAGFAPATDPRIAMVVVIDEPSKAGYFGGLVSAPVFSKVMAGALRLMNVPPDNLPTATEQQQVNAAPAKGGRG
T1 sequence (Q07806 whole entry): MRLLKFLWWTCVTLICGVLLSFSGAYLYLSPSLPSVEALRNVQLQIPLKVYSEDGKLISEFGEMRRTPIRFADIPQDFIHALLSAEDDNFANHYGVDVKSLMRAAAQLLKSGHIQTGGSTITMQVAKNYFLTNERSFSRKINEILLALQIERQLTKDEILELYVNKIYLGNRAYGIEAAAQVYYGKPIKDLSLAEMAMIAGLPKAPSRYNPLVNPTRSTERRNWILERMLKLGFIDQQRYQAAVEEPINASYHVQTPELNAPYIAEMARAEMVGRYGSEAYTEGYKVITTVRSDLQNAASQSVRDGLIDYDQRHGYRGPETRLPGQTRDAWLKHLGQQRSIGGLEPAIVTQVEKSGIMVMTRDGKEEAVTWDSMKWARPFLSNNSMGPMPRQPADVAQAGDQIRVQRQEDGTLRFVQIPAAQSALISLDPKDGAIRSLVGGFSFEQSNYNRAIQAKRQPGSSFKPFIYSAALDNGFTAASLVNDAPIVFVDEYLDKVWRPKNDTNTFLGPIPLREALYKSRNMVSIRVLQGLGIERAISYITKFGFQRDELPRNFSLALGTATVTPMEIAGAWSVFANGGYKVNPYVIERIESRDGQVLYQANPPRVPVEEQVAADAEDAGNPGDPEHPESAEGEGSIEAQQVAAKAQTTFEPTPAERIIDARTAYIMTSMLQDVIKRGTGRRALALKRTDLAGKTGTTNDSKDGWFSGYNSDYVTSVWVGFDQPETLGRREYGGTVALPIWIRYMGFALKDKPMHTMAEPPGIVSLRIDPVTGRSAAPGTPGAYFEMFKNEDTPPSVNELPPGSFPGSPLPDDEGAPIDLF
T5 sequence (G3XD31 entry or part of it): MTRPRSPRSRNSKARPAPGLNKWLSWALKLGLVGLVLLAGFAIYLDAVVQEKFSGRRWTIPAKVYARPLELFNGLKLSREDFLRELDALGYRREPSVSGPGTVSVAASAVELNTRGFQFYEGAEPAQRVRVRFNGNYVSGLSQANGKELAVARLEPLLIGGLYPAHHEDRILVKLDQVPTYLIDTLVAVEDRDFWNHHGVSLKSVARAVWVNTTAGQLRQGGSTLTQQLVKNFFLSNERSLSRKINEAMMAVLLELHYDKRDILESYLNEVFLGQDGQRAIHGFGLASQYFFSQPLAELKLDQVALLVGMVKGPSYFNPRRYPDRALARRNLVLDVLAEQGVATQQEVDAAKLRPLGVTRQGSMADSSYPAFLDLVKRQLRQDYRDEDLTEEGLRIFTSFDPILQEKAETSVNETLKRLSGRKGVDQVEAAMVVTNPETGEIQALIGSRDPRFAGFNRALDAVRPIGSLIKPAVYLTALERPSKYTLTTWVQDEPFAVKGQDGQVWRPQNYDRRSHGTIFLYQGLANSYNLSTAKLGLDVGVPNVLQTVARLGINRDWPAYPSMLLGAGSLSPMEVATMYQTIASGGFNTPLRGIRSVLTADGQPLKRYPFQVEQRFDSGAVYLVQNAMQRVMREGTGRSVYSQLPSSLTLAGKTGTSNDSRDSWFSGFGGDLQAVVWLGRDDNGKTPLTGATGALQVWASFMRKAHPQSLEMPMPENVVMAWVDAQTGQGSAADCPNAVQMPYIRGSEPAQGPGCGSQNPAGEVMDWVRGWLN
T3 sequence (Q9HZG1 entry or part of it): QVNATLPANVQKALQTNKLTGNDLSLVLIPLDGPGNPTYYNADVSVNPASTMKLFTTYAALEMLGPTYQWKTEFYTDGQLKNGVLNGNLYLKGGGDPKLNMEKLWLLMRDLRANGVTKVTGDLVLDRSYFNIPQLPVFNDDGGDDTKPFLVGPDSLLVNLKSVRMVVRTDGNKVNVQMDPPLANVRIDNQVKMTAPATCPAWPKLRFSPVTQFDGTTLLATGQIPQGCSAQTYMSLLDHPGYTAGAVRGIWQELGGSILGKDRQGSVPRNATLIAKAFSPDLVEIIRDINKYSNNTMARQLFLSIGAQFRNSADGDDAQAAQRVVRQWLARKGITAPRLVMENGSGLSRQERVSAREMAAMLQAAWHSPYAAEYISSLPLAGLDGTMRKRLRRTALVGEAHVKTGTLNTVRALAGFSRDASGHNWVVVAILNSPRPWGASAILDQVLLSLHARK
T4 sequence (Q9X6V3 entry or part of it): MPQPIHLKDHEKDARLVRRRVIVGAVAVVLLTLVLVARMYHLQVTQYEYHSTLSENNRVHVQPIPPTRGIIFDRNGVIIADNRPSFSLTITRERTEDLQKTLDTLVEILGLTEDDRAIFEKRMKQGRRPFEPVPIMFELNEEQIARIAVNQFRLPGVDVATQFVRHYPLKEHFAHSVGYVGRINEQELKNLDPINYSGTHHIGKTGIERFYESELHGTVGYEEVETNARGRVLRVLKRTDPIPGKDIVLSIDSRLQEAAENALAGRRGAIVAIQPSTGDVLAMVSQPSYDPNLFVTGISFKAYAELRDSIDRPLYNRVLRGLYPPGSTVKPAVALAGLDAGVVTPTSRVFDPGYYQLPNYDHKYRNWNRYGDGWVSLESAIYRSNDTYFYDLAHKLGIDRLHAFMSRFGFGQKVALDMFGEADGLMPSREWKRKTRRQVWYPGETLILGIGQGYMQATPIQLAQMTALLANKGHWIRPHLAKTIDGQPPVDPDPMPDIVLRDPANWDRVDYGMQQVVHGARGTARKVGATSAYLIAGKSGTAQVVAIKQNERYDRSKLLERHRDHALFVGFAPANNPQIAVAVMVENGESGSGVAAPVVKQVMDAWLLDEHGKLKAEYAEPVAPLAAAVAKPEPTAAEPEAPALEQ
T2 sequence (G3XD74 entry or part of it): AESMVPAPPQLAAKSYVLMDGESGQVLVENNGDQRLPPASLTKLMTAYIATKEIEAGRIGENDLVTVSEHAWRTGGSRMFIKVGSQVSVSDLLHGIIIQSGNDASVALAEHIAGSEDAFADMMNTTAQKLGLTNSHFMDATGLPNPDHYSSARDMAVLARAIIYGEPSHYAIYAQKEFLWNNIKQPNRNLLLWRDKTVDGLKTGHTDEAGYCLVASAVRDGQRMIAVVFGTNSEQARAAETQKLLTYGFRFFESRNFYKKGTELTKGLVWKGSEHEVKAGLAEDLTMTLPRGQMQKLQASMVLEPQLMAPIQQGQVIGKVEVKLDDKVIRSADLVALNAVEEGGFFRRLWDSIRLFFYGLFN

For `NC(=O)[C@@H]1CC[C@@H]2CN1C(=O)N2OS(=O)(=O)O` [Avibactam], the “Mean IC50 ± SD, PBP 1a” value on PBP1a [1] is “no PBP1a and 3 binding was detected”. The IC50 was greater than 121 µM on PBP1a [1] (read-out: Mean IC50 ± SD, PBP 1a (converted)); 8.29 µM at PBP5/6 [2]; 11.7 µM on PBP4 [3]; 15.8 µM at PBP2 [4]; 13.6 µM at PBP1b [5]; greater than 121 µM on PBP3 [6] (read-out: Mean IC50 ± SD, PBP 3 (converted)). Further, at PBP3 [6], the “Mean IC50 ± SD, PBP 3” value was “no PBP1a and 3 binding was detected”. Also, at PBP1a [7], the “PBP1a binding in whole-cell assay” value is “No significant”. Also, the “PBP5/6 binding in whole-cell assay” value at PBP5/6 [8] is given as “No significant”. The inhibition at 4 µg/mL on PBP4 [9] was no more than 50%; at PBP1b [11] it was 20%. Also, the PBP2 fraction bound at PBP2 [10] is recorded as 20%. Further, the “PBP3 binding in whole-cell assay” value on PBP3 [12] is recorded as “No significant”.
